Measurements reported in PubChem BioAssay AID1259411 (Chemical Carcinogenesis Research Information System (CCRIS), 2018).
Calls of active or inactive are those of the source. No rule for the calls is given here.

System: rodent carcinogenicity bioassays, tumor incidence
Assay: CCRIS carcinogenicity studies
Summary of the method: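 Archive of carcinogenicity, mutagenicity, tumor promotion and tumor inhibition results drawn from journals, NCI reports and other sources, expert-reviewed; covers 1985-2011 and is no longer updated.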

Measured: carcinogen call

CC(=O)CNCC(O)C(O)N=O (configuration not stated)
active: Species: RAT, Strain/Sex: F344/FEMALE, Route: ORAL, Dose: 0, 15, 60 MG/L DRINKING WATER 5 D/WK FOR 31, 24 WK (TOTAL DOSE 47; 144 MG) (STUDY DURATION: LIFESPAN), Dose: 0, 15, 60 MG/L DRINKING WATER 5 D/WK FOR 31, 24 WK (TOTAL DOSE 47; 144 MG) (STUDY DURATION: LIFESPAN), Tumor Site: Type of Lesion: ESOPHAGUS: CARCINOMA, PAPILLOMA, FORESTOMACH: CARCINOMA, PAPILLOMA, LUNG: TUMOR, TONGUE: CARCINOMA, PAPILLOMA, Tumor Site: Type of Lesion: ESOPHAGUS: CARCINOMA, PAPILLOMA, FORESTOMACH: CARCINOMA, PAPILLOMA, LUNG: TUMOR, TONGUE: CARCINOMA, PAPILLOMA active; positive

c1ccc2c(c1)ccc1cc3ccc4c(c3nc12)[C@@H]1O[C@@H]1CC4
inactive: Species: MOUSE, Strain/Sex: CD-1/FEMALE, Route: INTRAPERITONEAL, Dose: 0, 28 NMOL (TOTAL DOSE) ADMINISTERED AS 1/7 OF DOSE WITHIN 24 HR AFTER BIRTH, 2/7 OF DOSE AT 8 D OLD, 4/7 OF DOSE AT 15 inactive; negative | Species: MOUSE, Strain/Sex: CD-1/MALE, Route: INTRAPERITONEAL, Dose: 0, 28 NMOL (TOTAL DOSE) ADMINISTERED AS 1/7 OF DOSE WITHIN 24 HR AFTER BIRTH, 2/7 OF DOSE AT 8 D OLD, 4/7 OF DOSE AT 15 inactive; negative

CN(C)/C=N/c1nnc(/C=C/c2ccc([N+](=O)[O-])o2)o1
active: Species: RAT, Route: ORAL, Tumor Site: Type of Lesion: MAMMARY GLAND, INTESTINES active; positive

C=O
active: Species: Mouse, Strain/Sex: B6C3F1/Male (120/Group with sacrifices at 6, 12 and 24 mo), Route: Inhalation, Dose: 0, 2, 6, 15 ppm 6 hr/d, 5 d/wk for 24 mo, study duration 24 mo, Dose: 0, 2, 6, 15 ppm 6 hr/d, 5 d/wk for 24 mo, study duration 24 mo, Tumor Site: Type of Lesion: Nasal passages active; positive. dose-related non-neoplastic nasal lesions also observed. | Species: RAT, Strain/Sex: F344/FEMALE, Route: INHALATION, Dose: 0, 2, 6, 15 PPM, Dose: 0, 2, 6, 15 PPM, Tumor Site: Type of Lesion: NASAL TURBINATES: SQUAMOUS CELL CARCINOMA active; positive | Species: RAT, Strain/Sex: F344/MALE, Route: INHALATION, Dose: 0, 0.3, 2, 15 PPM 6 HR/D 5 D/WK FOR 28 MO (STUDY DURATION: 28 MO), Dose: 0, 0.3, 2, 15 PPM 6 HR/D 5 D/WK FOR 28 MO (STUDY DURATION: 28 MO), Tumor Site: Type of Lesion: NASAL CAVITY: SQUAMOUS CELL CARCINOMA, SQUAMOUS CELL PAPILLOMA active; positive | Species: RAT, Strain/Sex: F344/MALE, Route: INHALATION, Dose: 0, 2, 6, 15 PPM, Dose: 0, 2, 6, 15 PPM, Tumor Site: Type of Lesion: NASAL TURBINATES: SQUAMOUS CELL CARCINOMA active; positive | Species: RAT, Strain/Sex: SPRAGUE-DAWLEY/FEMALE, Route: ORAL, Dose: 0, 10, 50, 100, 500, 1000, 1500 PPM IN DRINKING WATER FOR 104 WK (STUDY DURATION: LIFETIME), Dose: 0, 10, 50, 100, 500, 1000, 1500 PPM IN DRINKING WATER FOR 104 WK (STUDY DURATION: LIFETIME), Tumor Site: Type of Lesion: LYMPHATIC SYSTEM: LEUKEMIA, GASTROINTESTINAL SYSTEM: TUMOR active; positive | Species: RAT, Strain/Sex: SPRAGUE-DAWLEY/MALE, Route: INHALATION, Dose: 14.2 PPM 6 HR/DAY, 5 DAY/WK, Tumor Site: Type of Lesion: NASAL CAVITY: SQUAMOUS CELL CARCINOMA active; positive | Species: RAT, Strain/Sex: SPRAGUE-DAWLEY/MALE, Route: ORAL, Dose: 0, 10, 50, 100, 500, 1000, 1500 PPM IN DRINKING WATER FOR 104 WK (STUDY DURATION: LIFETIME), Dose: 0, 10, 50, 100, 500, 1000, 1500 PPM IN DRINKING WATER FOR 104 WK (STUDY DURATION: LIFETIME), Tumor Site: Type of Lesion: LYMPHATIC SYSTEM: LEUKEMIA, GASTROINTESTINAL SYSTEM: TUMOR active; positive
inactive: Species: Hamster, Strain/Sex: Syrian golden/Male (132/Control group; 88/Experimental group), Route: Inhalation, Dose: 10 ppm 5 hr/day, 5 d/wk for life, study duration was lifetime of the animal inactive; negative | Species: Mouse, Strain/Sex: B6C3F1/Female (120/Group with sacrifices at 6, 12 and 24 mo), Route: Inhalation, Dose: 0, 2, 6, 15 ppm 6 hr/d, 5 d/wk for 24 mo, study duration 24 mo, Dose: 0, 2, 6, 15 ppm 6 hr/d, 5 d/wk for 24 mo, study duration 24 mo inactive; negative. dose-related non-neoplastic nasal lesions were observed. | Species: RAT, Strain/Sex: WISTAR/FEMALE, Route: ORAL, Dose: 0, 1.8, 21 MG/KG IN DRINKING WATER FOR UP TO 24 MO (STUDY DURATION: 105 WK), Dose: 0, 1.8, 21 MG/KG IN DRINKING WATER FOR UP TO 24 MO (STUDY DURATION: 105 WK) inactive; negative | Species: RAT, Strain/Sex: WISTAR/MALE, Route: INHALATION, Dose: 0, 0.1, 1.0, 10 PPM 6HR/D, 5D/WK FOR 3 MO (STUDY DURATION: 29 MO), Dose: 0, 0.1, 1.0, 10 PPM 6HR/D, 5D/WK FOR 3 MO (STUDY DURATION: 29 MO) inactive; negative | Species: RAT, Strain/Sex: WISTAR/MALE, Route: INHALATION, Dose: 0, 0.1, 1.0, 10 PPM 6HR/D, 5D/WK FOR 28 MO (STUDY DURATION: 29 MO), Dose: 0, 0.1, 1.0, 10 PPM 6HR/D, 5D/WK FOR 28 MO (STUDY DURATION: 29 MO) inactive; negative | Species: RAT, Strain/Sex: WISTAR/MALE, Route: ORAL, Dose: 0, 1.2, 15 MG/KG IN DRINKING WATER FOR UP TO 24 MO (STUDY DURATION: 105 WK), Dose: 0, 1.2, 15 MG/KG IN DRINKING WATER FOR UP TO 24 MO (STUDY DURATION: 105 WK) inactive; negative

C=CC
inactive: Species: MOUSE, Strain/Sex: B6C3F1/FEMALE, Route: INHALATION, Dose: 0, 5000, 10000 PPM IN AIR 6H/D 5D/WK FOR 103 WK (STUDY DURATION: 104 WK), Dose: 0, 5000, 10000 PPM IN AIR 6H/D 5D/WK FOR 103 WK (STUDY DURATION: 104 WK) inactive; negative | Species: MOUSE, Strain/Sex: B6C3F1/MALE, Route: INHALATION, Dose: 0, 5000, 10000 PPM IN AIR 6H/D 5D/WK FOR 103 WK (STUDY DURATION: 104 WK), Dose: 0, 5000, 10000 PPM IN AIR 6H/D 5D/WK FOR 103 WK (STUDY DURATION: 104 WK) inactive; negative | Species: MOUSE, Strain/Sex: SWISS/FEMALE, Route: INHALATION, Dose: 0, 200, 1000, 5000 PPM 7 HR/D, 5D/WK FOR 78 WK (STUDY DURATION: LIFESPAN), Dose: 0, 200, 1000, 5000 PPM 7 HR/D, 5D/WK FOR 78 WK (STUDY DURATION: LIFESPAN) inactive; negative | Species: MOUSE, Strain/Sex: SWISS/MALE, Route: INHALATION, Dose: 0, 200, 1000, 5000 PPM 7 HR/D, 5D/WK FOR 78 WK (STUDY DURATION: LIFESPAN), Dose: 0, 200, 1000, 5000 PPM 7 HR/D, 5D/WK FOR 78 WK (STUDY DURATION: LIFESPAN) inactive; negative | Species: RAT, Strain/Sex: F344/FEMALE, Route: INHALATION, Dose: 0, 5000, 10000 PPM IN AIR 6H/D 5D/WK FOR 103 WK (STUDY DURATION: 104 WK), Dose: 0, 5000, 10000 PPM IN AIR 6H/D 5D/WK FOR 103 WK (STUDY DURATION: 104 WK) inactive; negative | Species: RAT, Strain/Sex: F344/MALE, Route: INHALATION, Dose: 0, 5000, 10000 PPM IN AIR 6H/D 5D/WK FOR 103 WK (STUDY DURATION: 104 WK), Dose: 0, 5000, 10000 PPM IN AIR 6H/D 5D/WK FOR 103 WK (STUDY DURATION: 104 WK) inactive; negative | Species: RAT, Strain/Sex: SPRAGUE-DAWLEY/FEMALE, Route: INHALATION, Dose: 0, 200, 1000, 5000 PPM 7 HR/D, 5D/WK FOR 104 WK (STUDY DURATION: LIFESPAN), Dose: 0, 200, 1000, 5000 PPM 7 HR/D, 5D/WK FOR 104 WK (STUDY DURATION: LIFESPAN) inactive; negative | Species: RAT, Strain/Sex: SPRAGUE-DAWLEY/FEMALE, Route: INHALATION, Dose: 0, 200, 1000, 5000 PPM IN AIR 7 HR/D 5 D/WK FOR 104 WK (STUDY DURATION: LIFETIME), Dose: 0, 200, 1000, 5000 PPM IN AIR 7 HR/D 5 D/WK FOR 104 WK (STUDY DURATION: LIFETIME), Tumor Site: Type of Lesion: [BRAIN WAS ONLY SITE EVALUATED] inactive; negative | Species: RAT, Strain/Sex: SPRAGUE-DAWLEY/MALE, Route: INHALATION, Dose: 0, 200, 1000, 5000 PPM 7 HR/D, 5D/WK FOR 104 WK (STUDY DURATION: LIFESPAN), Dose: 0, 200, 1000, 5000 PPM 7 HR/D, 5D/WK FOR 104 WK (STUDY DURATION: LIFESPAN) inactive; negative | Species: RAT, Strain/Sex: SPRAGUE-DAWLEY/MALE, Route: INHALATION, Dose: 0, 200, 1000, 5000 PPM IN AIR 7 HR/D 5 D/WK FOR 104 WK (STUDY DURATION: LIFETIME), Dose: 0, 200, 1000, 5000 PPM IN AIR 7 HR/D 5 D/WK FOR 104 WK (STUDY DURATION: LIFETIME), Tumor Site: Type of Lesion: [BRAIN WAS ONLY SITE EVALUATED] inactive; negative
